Measurements: patent US20260049106A1, “PEPTIDE COMPOSITIONS AND METHODS OF USE” (ONL Therapeutics, Inc., priority 2022, published 2026)
Ends that are not written are not given here.

Legend:
Jurkat cells = assay: Cell viability preservation in vitro: cell confluence of Jurkat cells after 24-hour incubation with or without recombinant His-tagged FasL and anti-His antibody; type: cell-based; conditions: Incucyte / Vi-CELL
Method: Compounds (oligopeptides) of the present disclosure were assayed for their ability to effect cell confluence following a 24-hour incubation. Jurkat cells were incubated for 24 hours with varying concentrations of compound (i.e., 200, 66.7, 22.2, 7.4, 2.5, 0.8, 0.3, and 0.1) and with or without recombinant His-tagged FasL along with an anti-His antibody. After the 24-hour incubation, cell confluence was quantified using an S3 Incucyte Imaging System (Sartorius) and a Vi-CELL XR Cell Viability Analyzer (Beckman Coulter) and compared to controls (cells incubated in the absence of compound and cells incubated with a known Fas inhibitor).

photoreceptor cells = conditions: cell culture experiments; separation of the retinal and retinal pigment epithelium; cited from earlier work
[1] = apparently clear solution in 20 mM citrate buffer pH 2.8, in vitro and in vivo assays; cited from earlier work

| Substance | Activity (lowest concentration that prevented loss of cell confluency) (Jurkat cells) | photoreceptor protection (photoreceptor cells) | loss in activity [1] |
| --- | --- | --- | --- |
| HHIYLGAVNYIY-NH2 [Compound A, reference compound] | A (cell protection at x < 1.0 μM) | – | – |
| H^60HIYLGAVNYIY^71 (HHIYLGAVNYIY) [Met-12] | – | photoreceptor protective | at least a fivefold loss in activity |
| NH2-HHIAAGAVNYIY-C(O)NH2 (H-HHIAAGAVNYIY-NH2) [Compound 6] | B (cell protection at 1.0 < x < 10.0 μM) | – | – |
| NH2-HHIYLGGGGGNYIY-C(O)NH2 (H-HHIYLGGGGGNYIY-NH2) [Compound 7] | B (cell protection at 1.0 < x < 10.0 μM) | – | – |
| NH2-HHIYLGSSSSNYIY-C(O)NH2 (H-HHIYLGSSSSNYIY-NH2) [Compound 8] | B (cell protection at 1.0 < x < 10.0 μM) | – | – |
| NH2-HKIYLGAVNYIY-C(O)NH2 (H-HKIYLGAVNYIY-NH2) [Compound 11] | B (cell protection at 1.0 < x < 10.0 μM) | – | – |
| NH2-KHIYLGAVNYIY-C(O)NH2 (H-KHIYLGAVNYIY-NH2) [Compound 10] | A (cell protection at x < 1.0 μM) | – | – |
| NH2-KKIYLGAVNYIY-C(O)NH2 (H-KKIYLGAVNYIY-NH2) [Compound 9] | B (cell protection at 1.0 < x < 10.0 μM) | – | – |
